Assay results: ChEMBL document CHEMBL2346586, “N-substituted azaindoles as potent inhibitors of Cdc7 kinase” (Bioorg Med Chem Lett, 2013)

How the values were obtained:
[1] = target: Cyclin-dependent kinase 2 (Homo sapiens, UniProt P24941); test: Inhibition of CDK2 (unknown origin)
[2] = target: T1, Cell division cycle 7-related protein kinase (Homo sapiens, UniProt O00311); test: Inhibition of CDC7 (unknown origin)
[3] = Intrinsic clearance in rat liver microsomes; assay type: ADME, Microsome; conditions: read-out: CLH
[4] = Intrinsic clearance in human liver microsomes; assay type: ADME, Microsome; conditions: read-out: CLH
[5] = species on record: Homo sapiens; test: Selectivity ratio of IC50 for CDK2 (unknown origin) to IC50 for CDC7 (unknown origin)
[6] = target: T1, Cell division cycle 7-related protein kinase; test: Inhibition of CDC7 in human HCT116 cells assessed as MCM2 phosphorylation; assay type: cell-based, HCT-116

T1 sequence (O00311 whole entry): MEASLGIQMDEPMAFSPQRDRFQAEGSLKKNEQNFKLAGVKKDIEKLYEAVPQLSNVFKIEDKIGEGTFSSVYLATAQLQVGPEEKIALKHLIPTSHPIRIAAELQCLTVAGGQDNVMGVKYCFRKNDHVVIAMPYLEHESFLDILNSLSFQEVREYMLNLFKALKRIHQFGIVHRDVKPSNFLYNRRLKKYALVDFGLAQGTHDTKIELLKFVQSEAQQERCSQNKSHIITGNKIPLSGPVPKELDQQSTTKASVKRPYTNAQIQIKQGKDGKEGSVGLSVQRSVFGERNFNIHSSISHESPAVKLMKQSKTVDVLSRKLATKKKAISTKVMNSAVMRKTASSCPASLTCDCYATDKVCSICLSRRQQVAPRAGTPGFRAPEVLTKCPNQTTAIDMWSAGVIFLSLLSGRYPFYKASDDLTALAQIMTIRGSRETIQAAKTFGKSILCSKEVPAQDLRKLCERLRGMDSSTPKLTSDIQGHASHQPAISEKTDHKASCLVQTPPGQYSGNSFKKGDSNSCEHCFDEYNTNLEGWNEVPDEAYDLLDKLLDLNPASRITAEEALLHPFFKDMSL

| SMILES | IC50 [1] [nM] | IC50 [2] [nM] | microsomal CLint [3] [µL/min/mg] | microsomal CLint [4] [µL/min/mg] | Ratio IC50 [5] | IC50 [6] [nM] |
| --- | --- | --- | --- | --- | --- | --- |
| Nc1nccc(-n2ccc3cnccc32)n1 | 3700 | 980 | 101 | 62 | – | – |
| Nc1nccc(-n2cc(-c3cccnc3)c3cnccc32)n1 | 1100 | 160 | – | – | 7 | – |
| Nc1nccc(-n2ccc3ccc(Cl)cc32)n1 | 3700 | 66 | – | – | 56 | – |
| N#Cc1ccc2ccn(-c3cccc(N)n3)c2c1 | 45000 | 10400 | – | – | – | – |
| Nc1nccc(-n2ccc3ccncc32)n1 | 45100 | 930 | 64 | 134 | – | – |
| Nc1nccc(-n2cc(-c3cccc(Cl)c3)c3cnccc32)n1 | > 83000 | 160 | – | – | > 500 | – |
| N#Cc1ccc2ccn(-c3ccnc(N)c3)c2c1 | 39000 | 9000 | 122 | 201 | – | > 50000 |
| C#Cc1ccc2ccn(-c3ccnc(N)n3)c2c1 | 10000 | 760 | – | – | – | – |
| Nc1nccc(-n2ccc3ccc(O)cc32)n1 | 5000 | 3300 | – | – | – | – |
| Nc1nccc(-n2cc(-c3ccncc3)c3cnccc32)n1 | 160 | 250 | – | – | – | – |
| Nc1nccc(-n2cc(-c3cc[nH]n3)c3cnccc32)n1 | 550 | 580 | – | – | – | – |
| N#Cc1cnc2ccn(-c3ccnc(N)n3)c2c1 | > 83000 | 5300 | 64 | 108 | – | – |
| Nc1nccc(-n2ccc3ccccc32)n1 | 28500 | 4700 | 375 | 387 | – | > 50000 |
| Nc1nccc(-n2cc(-c3cccnc3Cl)c3cnc(Cl)cc32)n1 | > 83000 | 30 | 102 | 30 | > 2700 | 2300 |
| Nc1nccc(-n2ccc3ccc(F)cc32)n1 | 34000 | 156 | – | – | – | – |
| Nc1nccc(-n2cc(-c3cccnc3Cl)c3cnccc32)n1 | 310 | 7 | 72 | 21 | 44 | 850 |
| CNc1nccc(-n2ccc3ccc(C#N)cc32)n1 | 2700 | 25 | – | – | – | – |
| Nc1nccc(-n2cc(-c3ccoc3)c3cnccc32)n1 | 100 | 120 | – | – | – | – |

| SMILES | IC50 [1] [nM] | IC50 [2] [nM] | microsomal CLint [3] [µL/min/mg] | microsomal CLint [4] [µL/min/mg] | Ratio IC50 [5] | IC50 [6] [nM] |
| --- | --- | --- | --- | --- | --- | --- |
| Nc1nccc(-n2ccc3ncccc32)n1 | 21000 | 12600 | 50 | 60 | – | – |
| Nc1nccc(-n2ccc3ccc(C(F)(F)F)cc32)n1 | 17000 | 1100 | – | – | – | – |
| Nc1nccc(-n2ccc3cnc(Cl)cc32)n1 | 38000 | 360 | 134 | 104 | > 100 | > 50000 |
| N#Cc1ccc2ccn(-c3nccc(N)n3)c2c1 | > 29000 | 8800 | – | – | – | – |
| Nc1nccc(-n2cc(C3=CCOCC3)c3cnccc32)n1 | 160 | 160 | – | – | – | – |
| N#Cc1ccc2ccn(-c3cc(N)ncn3)c2n1 | > 83000 | 9 | 46 | 34 | – | 1370 |
| Nc1nccc(-n2cc(-c3ccccc3Cl)c3cnccc32)n1 | 110 | 11 | – | – | – | – |
| N#Cc1ccc2ccn(-c3cc(N)ncn3)c2c1 | > 83000 | 2700 | – | – | – | – |
| N#Cc1ccc2ccn(-c3ccncn3)c2c1 | > 83000 | 1500 | – | – | – | – |
| N#Cc1ccc2ccn(-c3ccnc(N)n3)c2c1 | 16500 | 75 | 124 | 430 | 220 | 5000 |
| N#Cc1cc2c(ccn2-c2ccnc(N)n2)cn1 | > 44000 | 1240 | 49 | 94 | – | – |
| Nc1nccc(-n2ccc3ccc(Br)cc32)n1 | 8200 | 350 | – | – | – | – |
| N#Cc1ccc2c(ccn2-c2ccnc(N)n2)c1 | > 29100 | 8500 | – | – | – | – |
| Nc1nccc(-n2cc(-c3ccccc3)c3cnccc32)n1 | 310 | 104 | – | – | 3 | – |
| Nc1nccc(-n2ccc3cccnc32)n1 | 42000 | 26700 | 282 | 338 | – | > 50000 |
| Nc1nccc(-n2cc(-c3ccc(Cl)cc3)c3cnccc32)n1 | 60 | 330 | – | – | – | – |
| Nc1nccc(-n2ccc3ccc([N+](=O)[O-])cc32)n1 | > 30600 | 82 | – | – | – | – |
